From PMC12386980, “Functional Analysis of NPC2 in Alarm Pheromone Recognition by the Red Imported Fire Ant, Solenopsis invicta (Formicidae: Solenopsis)” (Insects, 2025)

Experiments:
[1] = molecular target: T1, SinvNPC2a (Solenopsis invicta, UniProt Z9QIP2HJ34); experiment: fluorescence competitive binding assay, 1-NPN displacement
T1 construct: recombinant from pET28a in E. coli BL21(DE3) pLysS, soluble, Ni-IDA purified

[2] = molecular target: T1, SinvNPC2a; experiment: as above; remark: listed apart in the source

T1 sequence (Z9QIP2HJ34 21-153 limits assumed): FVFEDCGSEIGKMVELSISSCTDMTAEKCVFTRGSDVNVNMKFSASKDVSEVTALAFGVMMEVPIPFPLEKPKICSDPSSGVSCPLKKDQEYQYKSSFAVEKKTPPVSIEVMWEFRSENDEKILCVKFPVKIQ

IC50 [1]: 9.82 µM | Ki [2]: 5.09 ± 1.51 µM
Compound: CCc1nc(C)cnc1C [EDMP, 2-ethyl-3,6-dimethylpyrazine]
